Reference: ChEMBL document CHEMBL2203017, “STAT6 phosphorylation inhibitors block eotaxin-3 secretion in bronchial epithelial cells” (Bioorg Med Chem, 2012)
Calls of active or inactive are those of the source. The rule behind the calls is not given here.

Experiments:
[1] = biological target: T1, Signal transducer and activator of transcription 6 (Homo sapiens, UniProt P42226); test: Inhibition of human STAT6 expressed in 293-EBNA cells assessed as inhibition of IL4-induced STAT6 transcriptional activation after 1 hr by Photinus pylaris luciferase reporter gene assay; format: cell-based
T1 sequence (P42226 whole entry): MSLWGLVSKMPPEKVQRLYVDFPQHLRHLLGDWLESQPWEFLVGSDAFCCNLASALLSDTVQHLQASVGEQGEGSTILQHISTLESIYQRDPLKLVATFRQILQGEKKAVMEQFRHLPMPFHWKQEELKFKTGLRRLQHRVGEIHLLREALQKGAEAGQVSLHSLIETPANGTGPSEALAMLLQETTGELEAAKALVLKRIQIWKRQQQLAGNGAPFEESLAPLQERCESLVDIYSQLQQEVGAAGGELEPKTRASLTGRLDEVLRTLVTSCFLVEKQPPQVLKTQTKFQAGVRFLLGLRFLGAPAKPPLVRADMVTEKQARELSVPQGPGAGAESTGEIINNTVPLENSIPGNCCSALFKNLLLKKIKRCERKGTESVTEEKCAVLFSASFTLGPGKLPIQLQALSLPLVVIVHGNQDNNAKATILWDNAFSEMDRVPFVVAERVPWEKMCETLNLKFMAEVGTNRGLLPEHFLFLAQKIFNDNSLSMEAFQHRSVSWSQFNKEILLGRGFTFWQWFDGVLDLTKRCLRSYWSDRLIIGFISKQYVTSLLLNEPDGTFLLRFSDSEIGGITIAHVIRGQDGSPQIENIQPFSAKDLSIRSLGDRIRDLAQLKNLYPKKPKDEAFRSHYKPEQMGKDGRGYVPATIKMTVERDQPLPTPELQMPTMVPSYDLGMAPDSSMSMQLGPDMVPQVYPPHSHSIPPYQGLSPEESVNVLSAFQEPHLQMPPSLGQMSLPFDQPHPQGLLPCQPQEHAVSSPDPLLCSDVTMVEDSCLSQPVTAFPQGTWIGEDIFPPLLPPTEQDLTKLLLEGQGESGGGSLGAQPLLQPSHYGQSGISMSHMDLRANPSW

[2] = Cytotoxicity against human 293-EBNA cells assessed as effect on luciferase activity at 10 uM after 1 hr by Photinus reniformis luciferase reporter gene assay; format: cell-based
[3] = biological target: T2, Signal transducer and activator of transcription 6 (Homo sapiens) (UniProt P42226); test: Inhibition of human STAT6 expressed in 293-EBNA cells assessed as inhibition of IL4-induced STAT6 transcriptional activation at 10 uM after 1 hr by Renilla reniformis luciferase reporter gene assay; format: cell-based
T2 sequence (whole entry): T1 sequence (P42226 whole entry)

[4] = Cytotoxicity against human 293-EBNA cells assessed as effect on luciferase activity at 10 uM after 1 hr by Renilla reniformis luciferase reporter gene assay; format: cell-based
[5] = biological target: T2, Signal transducer and activator of transcription 6 (Homo sapiens); test: Inhibition of human N-terminal HA/myc tagged STAT6 expressed in 293-EBNA cells assessed as inhibition of IL-4-induced STAT6 inactive dimer-tyrosine phosphorylation after 1 hr by immunoblot analysis; format: cell-based
[6] = biological target: T2, Signal transducer and activator of transcription 6 (Homo sapiens); test: Inhibition of human STAT6 expressed in 293-EBNA cells assessed as inhibition of IL4-induced STAT6 transcriptional activation at 10 uM after 1 hr by Photinus pylaris luciferase reporter gene assay; format: cell-based
[7] = biological target: T2, Signal transducer and activator of transcription 6 (Homo sapiens); test: Inhibition of human N-terminal HA/myc tagged STAT6 expressed in 293-EBNA cells assessed as effect on STAT6 dimer configuration after 1 hr by immunoblot analysis; format: cell-based
[8] = biological target: T1, Signal transducer and activator of transcription 6; test: Binding affinity at human recombinant STAT6 by SPR analysis
[9] = biological target: Tyrosine-protein kinase JAK2 (Homo sapiens) (UniProt O60674); test: Inhibition of JAK2 up to 10 uM after 30 mins by colorimetric ELISA
[10] = biological target: T2, Signal transducer and activator of transcription 6 (Homo sapiens); test: Inhibition of IL-4-induced human STAT6 tyrosine phosphorylation expressed in 293-EBNA cells at 10 uM incubated for 1 hr prior to IL-4-induction measured after 6 hrs by Western blot analysis; format: cell-based
[11] = biological target: T2, Signal transducer and activator of transcription 6 (Homo sapiens); test: Inhibition of interaction of human recombinant STAT6 with tyrosine phosphorylated IL-4Ralpha peptide at 20 uM after 1 hr by ELISA
[12] = biological target: Signal transducer and activator of transcription 6 (Homo sapiens) (UniProt P42226); test: Inhibition of human STAT6 expressed in BEAS2B cells assessed as IL4-induced eotaxin-3 secretion after 24 hrs by ELISA
[13] = biological target: Signal transducer and activator of transcription 6 (Homo sapiens) (UniProt P42226); test: Inhibition of human STAT6 expressed in BEAS2B cells assessed as inhibition of IL4-induced STAT6 transcriptional activation
[14] = biological target: Signal transducer and activator of transcription 6 (Homo sapiens) (UniProt P42226); test: Inhibition of human STAT6 expressed in BEAS2B cells assessed as […]-induced eotaxin-3 secretion at 10 uM after 24 hrs by ELISA
[15] = biological target: Signal transducer and activator of transcription 6 (Homo sapiens) (UniProt P42226); test: Inhibition of human STAT6 expressed in BEAS2B cells assessed as IL4-induced eotaxin-3 secretion at 10 uM after 24 hrs by ELISA
[16] = biological target: Signal transducer and activator of transcription 6 (Homo sapiens) (UniProt P42226); test: Inhibition of human STAT6 expressed in BEAS2B cells assessed as IL4/TNFalpha-induced eotaxin-3 secretion at 10 uM after 24 hrs by ELISA
[17] = biological target: Signal transducer and activator of transcription 6 (Homo sapiens) (UniProt P42226); test: Inhibition of human STAT6 expressed in BEAS2B cells assessed as […]/TNFalpha-induced eotaxin-3 secretion in presence of TNFalpha at 10 uM after 24 hrs by ELISA

Sequence of Tyrosine-protein kinase JAK2 (Homo sapiens) (O60674 whole entry): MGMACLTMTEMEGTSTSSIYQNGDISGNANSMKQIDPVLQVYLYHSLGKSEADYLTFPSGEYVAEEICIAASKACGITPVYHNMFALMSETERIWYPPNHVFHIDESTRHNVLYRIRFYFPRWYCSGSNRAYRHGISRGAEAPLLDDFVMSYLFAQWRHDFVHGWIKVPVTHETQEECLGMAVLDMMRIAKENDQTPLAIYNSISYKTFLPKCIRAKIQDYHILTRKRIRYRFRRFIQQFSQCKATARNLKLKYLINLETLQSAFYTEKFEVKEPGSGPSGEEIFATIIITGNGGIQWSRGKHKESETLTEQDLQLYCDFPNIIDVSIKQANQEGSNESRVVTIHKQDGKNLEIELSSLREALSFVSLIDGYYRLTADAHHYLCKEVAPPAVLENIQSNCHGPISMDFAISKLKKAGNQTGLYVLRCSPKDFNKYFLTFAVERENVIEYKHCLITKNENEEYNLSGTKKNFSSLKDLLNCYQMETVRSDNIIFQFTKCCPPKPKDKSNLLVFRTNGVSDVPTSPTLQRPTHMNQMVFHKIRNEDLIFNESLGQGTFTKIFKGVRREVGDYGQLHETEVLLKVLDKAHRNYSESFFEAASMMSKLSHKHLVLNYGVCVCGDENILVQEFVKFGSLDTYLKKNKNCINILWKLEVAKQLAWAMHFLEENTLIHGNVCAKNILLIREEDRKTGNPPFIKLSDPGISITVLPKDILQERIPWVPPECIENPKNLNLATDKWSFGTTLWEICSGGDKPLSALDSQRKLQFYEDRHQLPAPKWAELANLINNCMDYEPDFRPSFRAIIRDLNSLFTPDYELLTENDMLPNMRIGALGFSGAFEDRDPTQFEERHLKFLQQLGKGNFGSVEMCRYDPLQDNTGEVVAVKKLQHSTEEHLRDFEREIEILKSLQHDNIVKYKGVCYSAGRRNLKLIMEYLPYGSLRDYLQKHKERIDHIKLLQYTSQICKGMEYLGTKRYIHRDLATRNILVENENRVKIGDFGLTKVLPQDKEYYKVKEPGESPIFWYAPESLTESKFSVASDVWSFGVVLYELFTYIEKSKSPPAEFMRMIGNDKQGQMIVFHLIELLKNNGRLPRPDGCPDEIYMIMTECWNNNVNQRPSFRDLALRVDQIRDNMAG

Row | IC50 [1] [nM] | inhibition [3] | inhibition [5] | inhibition [6] | inhibition [7] | Kd [8] [nM] | inhibition [9] | inhibition [10] | inhibition [11] | IC50 [12] [nM] | inhibition [13] | inhibition [14] | inhibition [15] | inhibition [16] | inhibition [17] | Compound | Activity [2] | Activity [4]
1 | 3200 | Active | Active | Active | inactive | 701 | inactive | Active | inactive |  |  |  |  |  |  | CC(C)[C@@H](C)NC(=O)c1cc(-c2cc3ccccc3s2)cc(C(=O)NCCc2ccccn2)n1 | Non-toxic | Non-toxic
2 |  |  | inactive |  | inactive | 74000 |  | inactive | inactive |  |  |  |  |  |  | CN(CCc1ccccc1)C(=O)c1csc2c1CCC/C2=N/O |  | 
3 | 2700 | Active | Active | Active | inactive | 656 | inactive | Active | inactive | 2740 | Active | Active | Active | Active | Active | CC(C)[C@@H](C)NC(=O)c1cc(-c2cc3ccccc3n2C)cc(C(=O)NCCc2ccccn2)n1 | Non-toxic | Non-toxic
